# Earlier results as cited in patent publication US20170071869A1 (Teva Pharmaceutical Industries Ltd., priority 2014, published 2017).
# Assays:
# [1] = test system: genes related to antigen presentation (NFkB pathway); settings: mainly via the NFkB pathway
smiles,measurement,setting,value
CCN(C(=O)c1c(O)c2c(Cl)cccc2n(C)c1=O)c1ccccc1 [Laquinimod],suppression of genes related to antigen presentation and corresponding inflammatory pathways,[1],induced suppression of genes related to antigen presentation
same,oral bioavailability,,high oral bioavailability
